Results reported in ChEMBL document CHEMBL1126695, “Orally active water-soluble N,O-acyl transfer products of a beta,gamma-bishydroxyl amide containing renin inhibitor” (J Med Chem, 1993).
Converted amounts (≈) assume the structure as drawn.

What was measured:
Format in all cases: ADME
[1] = Evaluated for the solubility in water at 5.8 pH of filtered solution; settings: pH 5.8, read-out: S
[2] = Evaluated the half life period in CH3CN / buffer, pH 7.4 at 37 degree C
[3] = Evaluated the half life period in distilled water at room temperature
[4] = Evaluated for the solubility in 0.10 N HCl at 1.6 pH of filtered solution; settings: pH 1.6, read-out: S
[5] = Evaluated for the solubility in water at 4.8 pH of filtered solution; settings: pH 4.8, read-out: S
[6] = Evaluated for the solubility in pH 7.4 buffer suspended at 5 mg / mL at 7.4 pH of filtered solution
[7] = Evaluated for the solubility in pH 6.0 buffer suspended at 5 mg / mL at 6.0 pH of filtered solution
[8] = Evaluated for the solubility in 0.10 N HCl at 1.5 pH of filtered solution; settings: pH 1.5, read-out: S
[9] = Evaluated for the solubility in water at 3.3 pH of filtered solution; settings: pH 3.3, read-out: S
[10] = Evaluated for the solubility in water at 3.2 pH of filtered solution; settings: pH 3.2, read-out: S
[11] = Evaluated for the solubility in 0.10 N HCl at 1.7 pH of filtered solution; settings: pH 1.7, read-out: S

In the case of CC(C)C[C@H](O)C(O)[C@H](CC1CCCCC1)NC(=O)[C@H](Cc1csc(N)n1)NC(=O)[C@H](Cc1ccccc1)NS(=O)(=O)N1CCOCC1 (stereo partly drawn), the solubility [1] is reported as 2 µg/mL (≈ 2.82 µM).

For CC(C)C[C@H](O)C(OC(=O)[C@H](Cc1csc(N)n1)NC(=O)[C@H](Cc1ccccc1)NS(=O)(=O)N1CCOCC1)[C@@H](N)CC1CCCCC1 (stereo partly drawn), the half-life [2] was 1 min and the half-life [3] was over 96 h.

In the case of CC(C)C[C@H](O)C(O)[C@H](CC1CCCCC1)NC(=O)[C@H](Cc1csc(N)n1)NC(=O)[C@H](Cc1ccccc1)NS(=O)(=O)N1CCOCC1.Cl (stereo partly drawn), the solubility [4] is reported as 6600 µg/mL, the solubility [5] is reported as 20 µg/mL and the solubility [6] is reported as 1 µg/mL. The solubility [7] was 1 µg/mL.

CC(C)C[C@H](O)C(OC(=O)[C@H](Cc1csc(N)n1)NC(=O)[C@H](Cc1ccccc1)NS(=O)(=O)N1CCOCC1)[C@@H](N)CC1CCCCC1.Cl (stereo partly drawn) gave a solubility [8] of 54600 µg/mL and a solubility [9] of 17600 µg/mL.

Compound CC(C)C[C@H](OC(=O)[C@H](Cc1csc(N)n1)NC(=O)[C@H](Cc1ccccc1)NS(=O)(=O)N1CCOCC1)C(O)[C@@H](N)CC1CCCCC1.Cl (stereo partly drawn) has a solubility [6] of 300 µg/mL, a solubility [10] of 20900 µg/mL and a solubility [11] of 71300 µg/mL. The solubility [7] was 1940 µg/mL.
